Data: patent US10710978B2, “STK4 inhibitors for treatment of hematologic malignancies” (Dana-Farber Cancer Institute, Inc., priority 2015, dated 2020)
Where two headings read alike, the source gives them in different places.

How the values were obtained:
Test in all cases: KiNativ assay
Format in all cases: binding
PAN3 = PAN3 (Homo sapiens (Human), UniProt Q58A45); details: H929 live cell
Experimental: (§1) Biochemical IC50s of the compounds of the present disclosure against various kinases were measured in a KiNativ assay. Compounds were screened in duplicate at 10 μM in H929 live cell. IC50 was measured via Mass spectroscopy (MS).

PI4KB = PI4KB (Homo sapiens (Human), UniProt Q9UBF8); details: H929 live cell
Experimental: as §1

[1] = system: CaMK2a, CaMK2b, CaMK2d, CaMK2g; details: H929 live cell
Experimental: as §1

MAP3K2 = MAP3K2 (Homo sapiens (Human), UniProt Q9Y2U5); details: H929 live cell
Experimental: as §1

TLK1 = TLK1 (Homo sapiens (Human), UniProt Q9UKI8); details: H929 live cell
Sequence of TLK1 (Q9UKI8 whole entry): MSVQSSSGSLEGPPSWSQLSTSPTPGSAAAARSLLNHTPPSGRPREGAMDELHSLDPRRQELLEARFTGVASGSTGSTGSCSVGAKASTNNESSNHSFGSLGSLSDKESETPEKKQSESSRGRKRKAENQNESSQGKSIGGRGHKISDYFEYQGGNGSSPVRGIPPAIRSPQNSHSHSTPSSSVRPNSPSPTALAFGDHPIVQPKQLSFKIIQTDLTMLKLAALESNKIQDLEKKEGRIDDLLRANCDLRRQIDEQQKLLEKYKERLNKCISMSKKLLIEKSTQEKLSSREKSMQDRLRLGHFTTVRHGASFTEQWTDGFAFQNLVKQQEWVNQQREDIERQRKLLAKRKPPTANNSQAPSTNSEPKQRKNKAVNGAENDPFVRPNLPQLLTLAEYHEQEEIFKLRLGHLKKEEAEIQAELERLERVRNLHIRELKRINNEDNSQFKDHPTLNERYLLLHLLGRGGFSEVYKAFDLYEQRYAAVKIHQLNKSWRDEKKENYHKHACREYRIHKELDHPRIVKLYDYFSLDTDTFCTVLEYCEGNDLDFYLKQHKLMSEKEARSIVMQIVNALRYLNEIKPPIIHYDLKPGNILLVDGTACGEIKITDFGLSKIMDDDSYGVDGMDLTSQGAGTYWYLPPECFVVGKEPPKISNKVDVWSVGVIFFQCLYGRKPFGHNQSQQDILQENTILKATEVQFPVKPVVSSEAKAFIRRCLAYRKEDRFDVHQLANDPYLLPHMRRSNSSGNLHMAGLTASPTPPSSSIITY
Experimental: as §1

MARK1, MARK2 = details: H929 live cell
Experimental: as §1

PEK = PEK (Homo sapiens (Human), UniProt Q9NZJ5); details: H929 live cell
Experimental: as §1

ZAK = ZAK (Homo sapiens (Human), UniProt Q9NYL2); details: H929 live cell
Experimental: as §1

Erk1 = Erk1 (Homo sapiens (Human), UniProt P27361); details: H929 live cell
Experimental: as §1

FER = FER (Homo sapiens (Human), UniProt P16591); details: H929 live cell
Experimental: as §1

MASTL = MASTL (Homo sapiens (Human), UniProt Q96GX5); details: H929 live cell
Experimental: as §1

NDR1 = NDR1 (Homo sapiens (Human), UniProt Q15208); details: H929 live cell
Experimental: as §1

NEK3 = NEK3 (Homo sapiens (Human), UniProt P51956); details: H929 live cell
Sequence of NEK3 (P51956 whole entry): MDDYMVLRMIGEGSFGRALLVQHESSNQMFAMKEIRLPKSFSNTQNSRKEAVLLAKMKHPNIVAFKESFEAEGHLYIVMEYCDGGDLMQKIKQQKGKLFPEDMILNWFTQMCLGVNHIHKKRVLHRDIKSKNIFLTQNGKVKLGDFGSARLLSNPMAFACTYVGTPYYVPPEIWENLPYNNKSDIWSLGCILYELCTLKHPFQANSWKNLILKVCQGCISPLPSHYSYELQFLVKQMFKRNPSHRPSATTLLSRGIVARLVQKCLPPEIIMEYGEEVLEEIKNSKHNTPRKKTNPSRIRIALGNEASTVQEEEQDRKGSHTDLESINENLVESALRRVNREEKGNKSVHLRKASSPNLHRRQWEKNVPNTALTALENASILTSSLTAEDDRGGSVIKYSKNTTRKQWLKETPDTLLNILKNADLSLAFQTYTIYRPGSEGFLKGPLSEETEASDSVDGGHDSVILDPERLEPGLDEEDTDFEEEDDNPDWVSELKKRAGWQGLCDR
Experimental: as §1

PHKg2 = PHKg2 (Homo sapiens (Human), UniProt P15735); details: H929 live cell
Experimental: as §1

eEF2K = eEF2K (Homo sapiens (Human), UniProt O00418); details: H929 live cell
Experimental: as §1

IRAK1 = IRAK1 (Homo sapiens (Human), UniProt P51617); details: H929 live cell
Experimental: as §1

BRAF = BRAF (Homo sapiens (Human), UniProt P15056); details: H929 live cell
Experimental: as §1

MAP2K1 = MAP2K1 (Homo sapiens (Human), UniProt Q02750); details: H929 live cell
Experimental: as §1

MAP2K6 = MAP2K6 (Homo sapiens (Human), UniProt P52564); details: H929 live cell
Sequence of MAP2K6 (P52564 whole entry): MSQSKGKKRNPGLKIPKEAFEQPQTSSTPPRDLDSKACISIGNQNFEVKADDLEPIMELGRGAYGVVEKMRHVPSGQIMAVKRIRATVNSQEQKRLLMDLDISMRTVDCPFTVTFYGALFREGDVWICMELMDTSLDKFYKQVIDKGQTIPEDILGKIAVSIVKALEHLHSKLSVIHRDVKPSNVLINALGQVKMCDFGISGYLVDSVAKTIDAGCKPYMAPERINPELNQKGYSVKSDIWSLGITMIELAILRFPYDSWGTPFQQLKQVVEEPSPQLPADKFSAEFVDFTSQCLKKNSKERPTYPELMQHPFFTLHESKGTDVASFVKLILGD
Experimental: as §1

PIP4K2A = PIP4K2A (Homo sapiens (Human), UniProt P48426); details: H929 live cell
Experimental: as §1

PITSLRE = details: H929 live cell
Experimental: as §1

SRPK2 = SRPK2 (Homo sapiens (Human), UniProt P78362); details: H929 live cell
Sequence of SRPK2 (P78362 whole entry): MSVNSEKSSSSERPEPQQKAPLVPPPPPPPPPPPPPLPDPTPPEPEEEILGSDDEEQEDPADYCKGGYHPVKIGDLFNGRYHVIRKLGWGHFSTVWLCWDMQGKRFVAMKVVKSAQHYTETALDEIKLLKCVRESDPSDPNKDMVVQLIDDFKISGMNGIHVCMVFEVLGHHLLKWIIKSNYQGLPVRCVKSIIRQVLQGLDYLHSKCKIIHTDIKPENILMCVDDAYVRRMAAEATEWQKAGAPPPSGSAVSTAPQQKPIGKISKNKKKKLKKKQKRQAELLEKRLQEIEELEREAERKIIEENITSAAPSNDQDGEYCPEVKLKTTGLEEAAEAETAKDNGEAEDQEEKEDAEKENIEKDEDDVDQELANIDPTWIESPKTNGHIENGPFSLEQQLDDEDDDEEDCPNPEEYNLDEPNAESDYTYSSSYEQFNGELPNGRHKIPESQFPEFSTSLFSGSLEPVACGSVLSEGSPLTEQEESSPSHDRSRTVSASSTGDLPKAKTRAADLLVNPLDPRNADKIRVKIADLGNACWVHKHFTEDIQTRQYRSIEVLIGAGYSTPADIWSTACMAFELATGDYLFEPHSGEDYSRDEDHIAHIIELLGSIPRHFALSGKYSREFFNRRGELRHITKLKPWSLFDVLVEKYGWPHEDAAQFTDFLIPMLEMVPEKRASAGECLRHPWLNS
Experimental: as §1

MAP2K1, MAP2K2 = details: 10 μM, H929 live cell
Experimental: as §1

MST4 = details: H929 live cell
Experimental: as §1

RSKL1 = RSKL1 (Homo sapiens (Human), UniProt Q96S38); details: H929 live cell
Sequence of RSKL1 (Q96S38 whole entry): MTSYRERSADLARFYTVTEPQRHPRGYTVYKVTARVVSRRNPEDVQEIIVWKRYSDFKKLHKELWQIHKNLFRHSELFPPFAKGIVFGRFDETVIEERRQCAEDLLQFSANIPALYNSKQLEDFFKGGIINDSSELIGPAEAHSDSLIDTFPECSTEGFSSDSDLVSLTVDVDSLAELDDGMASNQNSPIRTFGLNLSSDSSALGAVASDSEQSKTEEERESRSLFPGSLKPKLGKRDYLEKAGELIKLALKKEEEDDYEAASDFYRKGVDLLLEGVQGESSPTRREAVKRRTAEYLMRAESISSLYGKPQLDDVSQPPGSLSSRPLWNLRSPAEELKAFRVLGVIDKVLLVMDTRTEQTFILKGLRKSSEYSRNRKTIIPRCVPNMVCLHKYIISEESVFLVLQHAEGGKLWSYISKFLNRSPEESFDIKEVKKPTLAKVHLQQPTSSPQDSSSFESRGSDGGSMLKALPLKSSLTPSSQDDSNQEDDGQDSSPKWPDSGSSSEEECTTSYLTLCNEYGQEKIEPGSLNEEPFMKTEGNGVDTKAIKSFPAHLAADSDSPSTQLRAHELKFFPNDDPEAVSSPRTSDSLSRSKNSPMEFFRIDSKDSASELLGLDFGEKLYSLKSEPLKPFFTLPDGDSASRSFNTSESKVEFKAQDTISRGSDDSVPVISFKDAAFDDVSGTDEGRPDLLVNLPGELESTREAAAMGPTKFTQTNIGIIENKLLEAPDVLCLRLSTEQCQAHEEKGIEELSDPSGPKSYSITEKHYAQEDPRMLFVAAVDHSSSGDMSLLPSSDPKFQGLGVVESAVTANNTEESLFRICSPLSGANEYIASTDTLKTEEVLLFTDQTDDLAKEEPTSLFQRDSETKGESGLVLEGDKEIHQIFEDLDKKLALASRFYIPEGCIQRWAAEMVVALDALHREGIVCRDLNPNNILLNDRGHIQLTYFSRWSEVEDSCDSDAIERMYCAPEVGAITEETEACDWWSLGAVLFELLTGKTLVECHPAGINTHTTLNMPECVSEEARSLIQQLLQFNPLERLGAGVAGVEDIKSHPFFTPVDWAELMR
Experimental: as §1

PKD3 = PKD3 (Homo sapiens (Human), UniProt O94806); details: H929 live cell
Sequence of PKD3 (O94806 whole entry): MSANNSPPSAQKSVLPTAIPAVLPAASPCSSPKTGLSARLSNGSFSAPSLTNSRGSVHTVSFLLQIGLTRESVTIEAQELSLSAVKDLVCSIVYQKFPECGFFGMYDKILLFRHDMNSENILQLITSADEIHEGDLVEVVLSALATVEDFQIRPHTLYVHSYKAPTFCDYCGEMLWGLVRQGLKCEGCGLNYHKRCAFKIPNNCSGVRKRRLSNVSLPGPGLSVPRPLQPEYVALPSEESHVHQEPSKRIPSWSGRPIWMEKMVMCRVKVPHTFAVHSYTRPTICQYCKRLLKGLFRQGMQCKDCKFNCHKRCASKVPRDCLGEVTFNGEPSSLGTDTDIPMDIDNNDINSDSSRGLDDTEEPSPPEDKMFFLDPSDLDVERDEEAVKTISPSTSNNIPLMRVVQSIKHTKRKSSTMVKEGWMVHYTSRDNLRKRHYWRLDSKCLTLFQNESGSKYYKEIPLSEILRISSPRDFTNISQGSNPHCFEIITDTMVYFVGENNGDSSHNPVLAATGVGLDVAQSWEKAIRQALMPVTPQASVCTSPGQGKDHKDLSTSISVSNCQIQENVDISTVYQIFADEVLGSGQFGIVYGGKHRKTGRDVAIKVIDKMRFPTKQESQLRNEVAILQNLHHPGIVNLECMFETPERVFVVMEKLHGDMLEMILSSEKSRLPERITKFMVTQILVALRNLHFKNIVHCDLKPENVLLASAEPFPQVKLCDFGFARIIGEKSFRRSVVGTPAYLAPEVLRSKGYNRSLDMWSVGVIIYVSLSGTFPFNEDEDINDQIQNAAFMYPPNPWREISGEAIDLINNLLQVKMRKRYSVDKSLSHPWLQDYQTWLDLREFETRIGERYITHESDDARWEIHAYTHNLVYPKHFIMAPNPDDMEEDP
Experimental: as §1

MARK4 = MARK4 (Homo sapiens (Human), UniProt Q96L34); details: H929 live cell, read-out: inhibition (10 μM)
Experimental: as §1

HPK1 = HPK1 (Homo sapiens (Human), UniProt Q92918); details: H929 live cell
Experimental: as §1

MARK2 = MARK2 (Homo sapiens (Human), UniProt Q7KZI7); details: H929 live cell
Experimental: as §1

CDK11, CDK8 = details: H929 live cell
Experimental: as §1

IKKe, TBK1 = details: H929 live cell
Experimental: as §1

NuaK2 = NuaK2 (Homo sapiens (Human), UniProt Q9H093); details: H929 live cell
Experimental: as §1

AurA, AurB, AurC = details: H929 live cell
Experimental: as §1

CHK1 = CHK1 (Homo sapiens (Human), UniProt O14757); details: H929 live cell
Sequence of CHK1 (O14757 whole entry): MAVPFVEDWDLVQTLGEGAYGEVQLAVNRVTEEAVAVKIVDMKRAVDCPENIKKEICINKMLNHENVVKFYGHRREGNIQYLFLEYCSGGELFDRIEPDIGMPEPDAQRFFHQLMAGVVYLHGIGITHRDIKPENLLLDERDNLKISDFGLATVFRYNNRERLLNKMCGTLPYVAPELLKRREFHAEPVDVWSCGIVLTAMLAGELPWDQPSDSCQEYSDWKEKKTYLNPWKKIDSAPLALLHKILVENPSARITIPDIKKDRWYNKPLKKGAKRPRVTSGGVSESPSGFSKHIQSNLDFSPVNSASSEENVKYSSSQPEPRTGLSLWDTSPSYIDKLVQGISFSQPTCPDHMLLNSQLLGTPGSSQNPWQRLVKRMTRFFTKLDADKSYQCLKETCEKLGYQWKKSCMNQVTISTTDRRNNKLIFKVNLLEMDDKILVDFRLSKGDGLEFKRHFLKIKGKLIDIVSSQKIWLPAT
Experimental: as §1

SMILES: Nc1ncc(-c2cccc3ncsc23)cc1-c1ccc2c(c1)CCNC2=O [Compound I-13, 6-(2-amino-5-(benzo[d]thiazol-7-yl)pyridin-3-yl)-3,4-dihydroisoquinolin-1(2H)-one]
- inhibition at 10 µM (PAN3; read-out: % inhibition (range)): 0%
- inhibition at 10 µM (PAN3; read-out: inhibition (10 μM)): -4%
- inhibition at 10 µM (PI4KB; read-out: % inhibition (range)): 0%
- inhibition at 10 µM (PI4KB; read-out: inhibition (10 μM)): 34.8%
- % inhibition (range) ([1]; 10 μM): 0.0%
- inhibition (10 μM) [1]: −4.1%
- inhibition at 10 µM (MAP3K2; read-out: % inhibition (range)): 0%
- inhibition at 10 µM (MAP3K2; read-out: inhibition (10 μM)): -23.5%
- inhibition at 10 µM (TLK1; read-out: % inhibition (range)): 0%
- inhibition at 10 µM (TLK1; read-out: inhibition (10 μM)): 8.6%
- % inhibition (range) (MARK1, MARK2; 10 μM): 0.0%
- inhibition (10 μM) (MARK1, MARK2): 2.9%
- inhibition at 10 µM (PEK; read-out: % inhibition (range)): 0%
- inhibition at 10 µM (PEK; read-out: inhibition (10 μM)): -40.8%
- inhibition at 10 µM (ZAK; read-out: % inhibition (range)): 35 to 50%
- inhibition at 10 µM (ZAK; read-out: inhibition (10 μM)): 44.9%
- inhibition at 10 µM (Erk1; read-out: % inhibition (range)): 75 to 90%
- inhibition at 10 µM (Erk1; read-out: inhibition (10 μM)): 75%
- inhibition at 10 µM (FER; read-out: % inhibition (range)): 0%
- inhibition at 10 µM (FER; read-out: inhibition (10 μM)): 4.2%
- inhibition at 10 µM (MASTL; read-out: % inhibition (range)): 0%
- inhibition at 10 µM (MASTL; read-out: inhibition (10 μM)): -2%
- inhibition at 10 µM (NDR1; read-out: % inhibition (range)): 0%
- inhibition at 10 µM (NDR1; read-out: inhibition (10 μM)): 13%
- inhibition at 10 µM (NEK3; read-out: % inhibition (range)): 0%
- inhibition at 10 µM (NEK3; read-out: inhibition (10 μM)): 5.3%
- inhibition at 10 µM (PHKg2; read-out: % inhibition (range)): 0%
- inhibition at 10 µM (PHKg2; read-out: inhibition (10 μM)): -27.5%
- inhibition at 10 µM (eEF2K; read-out: % inhibition (range)): 0%
- inhibition at 10 µM (eEF2K; read-out: inhibition (10 μM)): -45.5%
- inhibition at 10 µM (IRAK1; read-out: % inhibition (range)): 0%
- inhibition at 10 µM (IRAK1; read-out: inhibition (10 μM)): 28.5%
- inhibition at 10 µM (BRAF; read-out: % inhibition (range)): 0%
- inhibition at 10 µM (BRAF; read-out: inhibition (10 μM)): 10.2%
- inhibition at 10 µM (MAP2K1; read-out: % inhibition (range)): 0%
- inhibition at 10 µM (MAP2K1; read-out: inhibition (10 μM)): -27.4%
- inhibition at 10 µM (MAP2K6; read-out: % inhibition (range)): 0%
- inhibition at 10 µM (MAP2K6; read-out: inhibition (10 μM)): 4.3%
- inhibition at 10 µM (PIP4K2A; read-out: % inhibition (range)): 0%
- inhibition at 10 µM (PIP4K2A; read-out: inhibition (10 μM)): 2.3%
- % inhibition (range) (PITSLRE; 10 μM): 0.0%
- inhibition (10 μM) (PITSLRE): −3.6%
- inhibition at 10 µM (SRPK2; read-out: % inhibition (range)): 0%
- inhibition at 10 µM (SRPK2; read-out: inhibition (10 μM)): -14%
- % inhibition (range) (MAP2K1, MAP2K2): 0.0%
- % inhibition (range) (MST4; 10 μM): 0.0%
- inhibition (10 μM) (MST4): 29.3%
- inhibition at 10 µM (RSKL1; read-out: % inhibition (range)): 0%
- inhibition at 10 µM (RSKL1; read-out: inhibition (10 μM)): 1.6%
- inhibition at 10 µM (PKD3; read-out: % inhibition (range)): 50 to 75%
- inhibition at 10 µM (PKD3; read-out: inhibition (10 μM)): 69.4%
- inhibition at 10 µM (MARK4): 39.8%
- inhibition at 10 µM (HPK1; read-out: % inhibition (range)): 50 to 75%
- inhibition at 10 µM (HPK1; read-out: inhibition (10 μM)): 52.1%
- inhibition at 10 µM (MARK2; read-out: % inhibition (range)): 0%
- inhibition at 10 µM (MARK2; read-out: inhibition (10 μM)): 32.3%
- % inhibition (range) (CDK11, CDK8; 10 μM): 50-75%
- inhibition (10 μM) (CDK11, CDK8): 59.3%
- % inhibition (range) (IKKe, TBK1; 10 μM): 0.0%
- inhibition (10 μM) (IKKe, TBK1): −9.9%
- inhibition at 10 µM (NuaK2; read-out: % inhibition (range)): 50 to 75%
- inhibition at 10 µM (NuaK2; read-out: inhibition (10 μM)): 53.9%
- % inhibition (range) (AurA, AurB, AurC; 10 μM): 0.0%
- inhibition (10 μM) (AurA, AurB, AurC): 17.7%
- inhibition at 10 µM (CHK1; read-out: % inhibition (range)): 0%
- inhibition at 10 µM (CHK1; read-out: inhibition (10 μM)): -8.9%
